These are literature values, as cited in PMC7610473, “Axial functionalisation of photoactive diazido platinum(iv) anticancer complexes” (Inorganic chemistry frontiers, 2020).

On the set-up of this data set: method as in PMID 9399704.

Regarding `O=C(O)c1cc2ccc(O)cc2oc1=O` [7-hydroxycoumarin-3 carboxylic acid], the pK a is recorded as 1.98.
